Data set [1] is described as follows: Log P (n-octanol/water partitioning).
The conditions of data set [2]: male, Sprague Dawley, rat, in vivo, sc, 0.5 mg/kg.
Procedure: The plasma levels of drugs released into the blood stream were measured in rodent (Sprague Dawley rats) and non-human primates (Macaca fascicularis, cynomolgus monkeys) following single subcutaneous injections of their respective POZ conjugates with different linkers and drug loading wt %.
Male Sprague Dawley naive rats (age 8-9 weeks, weight 200-250 g) were acquired and placed in rat cages and allowed at least 3 days of acclimatization before the start of the dosing. Each test group contained 3 rats. The POZ conjugates were dissolved 5% dextrose injection and the pH of the solution was adjusted to about 4.0 with 0.1 N hydrochloric acid. Each animal received a single subcutaneous (SC) injection of test article solution equivalent to a dose of 1.5-1.6 mg/kg (based in drug equivalents) and at a volume of 1 mL/kg, and into the left flank using a 23 G BD precision glide needle. […] All blood samples were collected in pre-labeled BD Microtainer tubes containing NaF/disodium EDTA, gently mixed and placed in an ice batch. Plasma was harvested by centrifugation at 3000 rpm for 15 minutes at 4° C. Plasma aliquots of 100 μL were collected in separate tubes containing 10 μL of a solution of 3N HCl acid, gently mixed and immediately frozen and stored at −70° C.
The plasma samples were processed by the ‘protein crash’ method using cold acetonitrile.

Several values for one entry are separate records, joined by “and”; a condition that tells them apart may be missing. Equal entries are not always repeated.

As to `C=C(C)[C@@H]1CCC(C)=C[C@H]1c1c(O)cc(CCCCC)cc1O` [Cannabidiol, cannabidiol], in data set [1] (at 25° C., free drug), the “Log Poct/wat” value is given as 6.1.

For `CCCCCc1cc(O)c2c(c1)OC(C)(C)[C@@H]1CCC(C)=C[C@@H]21` [Δ^9-THC, d9-tetrahydrocannabinol], the “Log P” value in data set [1] (free drug, listed as THC) is 7.2 and 7.0.

For the compound `CCCCCCC(C)(C)c1cc(O)c2c(c1)OC(C)(C)[C@H]1CC=C(CO)C[C@H]21` [Dexanabinol, dexanabinol], in data set [1], the logP came to 7.6.

For `CCCN(CCc1cccs1)[C@H]1CCc2c(O)cccc2C1` [Rotigotine, rotigotine], in data set [2], the “time to clear the body” value is given as “less than 24 hours”. In the data set “physchem”, this compound returned a logP of 4.9.

A word on the Log P: it is the decadic logarithm of the partition coefficient of the neutral form, usually between octanol and water. Lower therefore signals lower lipophilicity. Usually logP stands for the decadic logarithm of the partition coefficient of the neutral form, usually between octanol and water. High values mean a more lipophilic compound, low ones a more hydrophilic compound.

The record behind these values is US12383626B2, “Polyoxazoline-drug conjugates with novel pharmacokinetic properties” (priority 2019, dated 2025).
